Data taken from patent USRE48461E1, “Modulation of androgen receptor expression” (Ionis Pharmaceuticals, Inc., priority 2012, dated 2021).

Key:
Assay type in all cases: cell-based, human
AR mRNA [1] = assay: AR mRNA levels in LMR20 cells (with/without DHT or R1881); settings: with or without DHT/R1881
Method: LMR20 cells were plated at 1,500 cells per well in phenol red-free medium with CSS.

LMR20 cells = assay: Proliferation of MDV3100-resistant LMR20 cells (MTT; with R1881 or DHT); settings: 5 days
Method: LMR20 cells were plated at 1,500 cells per well in phenol red-free medium with charcoal-stripped fetal bovine serum (CSS), to remove any androgens from the medium (Life Technologies). […] The synthetic androgen agonist, R1881, (Takeda, A. N. et al., Mol. Pharmacol. 2007. 71: 473-82) was added on day 1 at 1 nM dose to a set of cells also treated with each of the antisense oligonucleotides. DHT was added on day 1 at a dose of 10 nM to another set of cells also treated with each of the antisense oligonucleotides. […] After a treatment period of 5 days, the proliferative ability of the cancer cells was measured by the standard MTT assay. Results are presented in Table 42 as percent inhibition of proliferation, relative to non-treated cells.

AR mRNA [2] = assay: AR mRNA in C4-2B cells by free uptake (hAR_LTS00943); settings: free uptake, 24 hrs
Method: (§1) Cells were plated at a concentration of 1,000 cells/well in 96-well plates to measure cell proliferation, and at 4,000 cells/well to measure target reduction. ISIS 549458, ISIS 549372, ISIS 549434, and ISIS 554221 were added individually at 0.04 μM, 0.20 μM, 1.00 μM, or 5.00 μM. After an incubation period of 24 hrs, mRNA levels were measured using hAR_LTS00943.

CWR22-RV1 cells = assay: CWR22-RV1 cell proliferation (CellTiter 96); settings: RNAiMax, 6 days
Method: (§2) CWR22-RV1 cells were plated and transfected using RNAiMax reagent (Life Technologies) with ISIS oligonucleotides at 1.7 nM, 5.0 nM, 16.7 nM, or 50 nM concentrations. ISIS 347526 was included as a negative control. After a treatment period of 6 days, the target reduction and proliferative capacity of the cancer cells was measured.
(§3) Antisense inhibition of AR full-length mRNA was measured with the RTS3559 primer probe set. The results are presented in Table 63 as percent inhibition relative to non-treated cells. The reduction in V7 splice variant of the AR mRNA was also measured by RT-PCR using SYBR Green staining (Hu, R. et al., Cancer Res. 2009. 69: 16-22). The results are presented in Table 64, as percent reduction, relative to non-treated cells. Cell proliferation was measured with CellTiter 96® AQueous One Solution Cell Proliferation kit (Promega), following the manufacturer's instructions. Results are presented in Table 65 as percent inhibition of proliferation, relative to non-treated cells.

AR full-length mRNA = AR full-length mRNA in CWR22-RV1 cells (RNAiMax, RTS3559); settings: 6 days
Method: as §2, §3

full-length AR = assay: Western blot of full-length AR in MDV3100-resistant C4-2B cells; settings: C4-2B MR cells (Example 16)
Method: (§4) ISIS 549372, ISIS 549434, and ISIS 554221 at 1 μM concentration of antisense oligonucleotide were each added to the culture media at 1 μM concentration for free uptake by the cells. After a treatment period of 2 days, cells were harvested in RIPA buffer containing protease inhibitors. The presence of bands for full-length AR, as well as the variant form, AR-V7, was detected by western blot using AR antibody (N-20, Santa Cruz).
(§5) Western analysis of full-length AR, as well as the AR-V7 variant, was also conducted in a manner similar to the assay described above.

C4-2B cells [3] = assay: C4-2B cell proliferation by free uptake (MTT); settings: day 6
Method: as §1
On day 6, cells plated for measuring proliferation were incubated with MTT reagent until the development of color. Color intensity was measured using a spectrophotometer at 490 nm.

AR-V7 = assay: Western blot of AR-V7 in MDV3100-resistant C4-2B cells; settings: C4-2B MR cells (Example 16)
Method: as §4, §5

C4-2B cells [4] = assay: C4-2B cell proliferation, ASO in combination with MDV3100 (Example 19); settings: 6 days
Method: C4-2B cells were plated at 1,500 cells per well. […] ISIS 347526 was included as a negative control. […] After a treatment period of 6 days, the proliferative capacity of the cancer cells was measured with CellTiter 96® AQueous One Solution Cell Proliferation kit (Promega), following the manufacturer's instructions. Results are presented in Table 46 as percent inhibition of proliferation, relative to non-treated cells. Treatment of the cells with ISIS 549372 or ISIS 549458 reduced proliferation of the cells more extensively than treatment with ISIS 554221.

[5] = tested on: V7 splice variant of the AR mRNA; assay: AR V7 splice variant mRNA in CWR22-RV1 cells (RT-PCR SYBR Green); settings: RNAiMax, 6 days
Method: as §2, §3

“ACCAAGTTTCTTCAGC (LNA gapmer, phosphorothioate backbone, further chemistry not given here) [ISIS 554221, 3-10-3 LNA gapmer, phosphorothioate backbone, targeted to exon 4 of AR; benchmark, reference compound]” was tested, and the “AR mRNA levels in LMR20 cells” value (AR mRNA [1]) was “did not alter AR mRNA levels”, the “Percent inhibition of LMR20 cell proliferation” value (LMR20 cells; CSS + DHT, ASO 0.04 μM) was 0% and the “Percent inhibition of LMR20 cell proliferation” value (LMR20 cells; CSS + DHT, ASO 0.20 μM) was 0%. The “Percent inhibition of LMR20 cell proliferation” value (LMR20 cells; CSS + DHT, ASO 1.0 μM) was 10%, the “Percent inhibition of LMR20 cell proliferation” value (LMR20 cells; CSS + DHT, ASO 5.0 μM) was 36% and the “Percent inhibition of LMR20 cell proliferation” value (LMR20 cells; CSS + R1881, ASO 0.04 μM) was 1%. The “Percent inhibition of LMR20 cell proliferation” value (LMR20 cells; CSS + R1881, ASO 0.20 μM) was 10%, the “Percent inhibition of LMR20 cell proliferation” value (LMR20 cells; CSS + R1881, ASO 1.0 μM) was 19% and the “Percent inhibition of LMR20 cell proliferation” value (LMR20 cells; CSS + R1881, ASO 5.0 μM) was 54%. The “Percent inhibition of LMR20 cell proliferation” value (LMR20 cells; CSS, ASO 0.04 μM) was 0%, the “Percent inhibition of LMR20 cell proliferation” value (LMR20 cells; CSS, ASO 0.20 μM) was 1% and the “Percent inhibition of LMR20 cell proliferation” value (LMR20 cells; CSS, ASO 1.0 μM) was 2%. For the same sequence, the “Percent inhibition of LMR20 cell proliferation” value (LMR20 cells; CSS, ASO 5.0 μM) was 16%, the “Percent inhibition of AR full-length mRNA” value (AR mRNA [2]; dose 0.04 μM) was 0% and the “Percent inhibition of AR full-length mRNA” value (AR mRNA [2]; dose 0.20 μM) was 0%. The “Percent inhibition of AR full-length mRNA” value (AR mRNA [2]; dose 1.00 μM) was 0%, the “Percent inhibition of AR full-length mRNA” value (AR mRNA [2]; dose 5.00 μM) was 0% and the “Percent inhibition of cell proliferation” value (CWR22-RV1 cells; dose 5.0 nM) was 11%. The “Percent inhibition of cell proliferation” value (CWR22-RV1 cells; dose 16.7 nM) was 27%, the “Percent inhibition of cell proliferation” value (CWR22-RV1 cells; dose 50.0 nM) was 47% and the “Percent inhibition of AR full-length mRNA” value (AR full-length mRNA; dose 5.0 nM) was 41%. The “Percent inhibition of AR full-length mRNA” value (AR full-length mRNA; dose 16.7 nM) was 67%, the “Percent inhibition of AR full-length mRNA” value (AR full-length mRNA; dose 50.0 nM) was 72% and the “levels of full-length AR (Western analysis)” value (full-length AR) was “reduced levels of full-length AR less extensively compared to ISIS 549372”. The “Percent inhibition of cell proliferation” value (C4-2B cells [3]; dose 0.04 μM) was 0%, the “Percent inhibition of cell proliferation” value (C4-2B cells [3]; dose 0.20 μM) was 10% and the “Percent inhibition of cell proliferation” value (C4-2B cells [3]; dose 1.00 μM) was 21%. For the same sequence, the “Percent inhibition of cell proliferation” value (C4-2B cells [3]; dose 5.00 μM) was 30%, the “levels of AR-V7 (Western analysis)” value (AR-V7) was “did not reduce levels of AR-V7” and the “Percent inhibition of C4-2B cell proliferation with 0.1 μM ASO” value (from here on “Percent inhibition … with 0.1 μM ASO”) (C4-2B cells [4]; 0.1 μM ASO + MDV3100 1 μM) was 59%. The “Percent inhibition … with 0.1 μM ASO” value (C4-2B cells [4]; 0.1 μM ASO + MDV3100 […]) was 29%, the “Percent inhibition … with 0.1 μM ASO” value (C4-2B cells [4]; 0.1 μM ASO, MDV3100 0 μM) was 9% and the “Percent inhibition of C4-2B cell proliferation with 0.2 μM ASO” value (“Percent inhibition … with 0.2 μM ASO” for short) (C4-2B cells [4]; 0.2 μM ASO + MDV3100 1 μM) was 67%. The “Percent inhibition … with 0.2 μM ASO” value (C4-2B cells [4]; 0.2 μM ASO + MDV3100 […]) was 45%, the “Percent inhibition … with 0.2 μM ASO” value (C4-2B cells [4]; 0.2 μM ASO, MDV3100 0 μM) was 23% and the “reduced cell proliferation, ASO alone” value (C4-2B cells [4]; C4-2B cells, ASO alone, Table 46 (0.1 μM ASO)) was 23%. The “Percent inhibition of AR splice variant, V7” value (“Percent inhibition … V7” for short) ([5]; dose 5.0 nM) was 1%, the “Percent inhibition … V7” value ([5]; dose 16.7 nM) was 7% and the “Percent inhibition … V7” value ([5]; dose 50.0 nM) was 35%.
